According to patent publication US12077503B2, “Substituted cyclic amides and their use as herbicides” (FMC CORPORATION, priority 2015, dated 2024):

How the values were obtained:
Assay type in all cases: in vivo
Kochia (Kochia scoparia) [1] = assay: Test A preemergence; conditions: Bassia scoparia, pre-emergence, 240 h, preemergence, 0 to 100 scale where 0 is no effect and 100 is complete control, read-out: Kochia plant response rating; for pest or weed control at 125 g/ha: 125 g ai/ha, approx. 10 d; for pest or weed control at 500 g/ha: 500 g ai/ha
Procedure, shortened: (§1)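 Preemergence soil spray on seeded pots or post-emergence spray on 1–2 leaf plants, in loam–sand blend. Greenhouse ~10 d. Visual rating 0–100 against untreated plants.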

[2] = system: barnyardgrass (Echinochloa crus-galli); assay: Test A preemergence; conditions: Echinochloa crus-galli, pre-emergence, 240 h, preemergence, 0 to 100 scale where 0 is no effect and 100 is complete control, read-out: Barnyardgrass plant response rating; for pest or weed control at 125 g/ha: 125 g ai/ha, approx. 10 d; for pest or weed control at 500 g/ha: 500 g ai/ha
Procedure, shortened: as §1

[3] = system: giant foxtail (Setaria faberii); assay: Test A preemergence; conditions: Setaria faberi, pre-emergence, 240 h, preemergence, 0 to 100 scale where 0 is no effect and 100 is complete control, read-out: Foxtail, Giant plant response rating; for pest or weed control at 125 g/ha: 125 g ai/ha, approx. 10 d; for pest or weed control at 500 g/ha: 500 g ai/ha
Procedure, shortened: as §1

[4] = system: pigweed (Amaranthus retroflexus); assay: Test A preemergence; conditions: Amaranthus retroflexus, pre-emergence, 240 h, preemergence, 0 to 100 scale where 0 is no effect and 100 is complete control, read-out: Pigweed plant response rating; for pest or weed control at 125 g/ha: 125 g ai/ha, approx. 10 d; for pest or weed control at 500 g/ha: 500 g ai/ha
[5] = system: ryegrass, Italian (Italian ryegrass, Lolium multiflorum); assay: Test A preemergence; conditions: Lolium multiflorum, pre-emergence, 240 h, preemergence, 0 to 100 scale where 0 is no effect and 100 is complete control, read-out: Ryegrass, Italian plant response rating; for pest or weed control at 125 g/ha: 125 g ai/ha, approx. 10 d; for pest or weed control at 500 g/ha: 500 g ai/ha
Procedure, shortened: as §1

[6] = system: ragweed (common ragweed, Ambrosia elatior); assay: Test A preemergence; conditions: Ambrosia artemisiifolia, pre-emergence, 240 h, preemergence, 0 to 100 scale where 0 is no effect and 100 is complete control, read-out: Ragweed plant response rating; for pest or weed control at 125 g/ha: 125 g ai/ha, approx. 10 d; for pest or weed control at 500 g/ha: 500 g ai/ha
Procedure, shortened: as §1

[7] = system: sedge, umbrella (small-flower umbrella sedge, Cyperus difformis); assay: Test B flooded paddy test; conditions: Cyperus difformis, 250 g ai/ha, Flood; 0 to 100 scale where 0 is no effect and 100 is complete control; read-out: Sedge, Umbrella plant response rating
Procedure, shortened: (§2)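 Percent control, visually estimated after 13–15 d in the greenhouse on a 0–100 basis, compares treated pots with untreated ones; compound was put into paddy water 3 cm above the soil when plants had two leaves.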

[8] = system: barnyardgrass (Echinochloa crus-galli); assay: Test B flooded paddy test; conditions: Echinochloa crus-galli, 250 g ai/ha, Flood; 0 to 100 scale where 0 is no effect and 100 is complete control; read-out: Barnyardgrass plant response rating
Procedure, shortened: as §2

rice (Oryra sativa) = assay: Test B flooded paddy test; conditions: Oryza sativa, 250 g ai/ha, Flood; 0 to 100 scale where 0 is no effect and 100 is complete control; read-out: Rice plant response rating
Procedure, shortened: as §2

[9] = system: ducksalad (Heteranthera limosa); assay: Test B flooded paddy test; conditions: Heteranthera limosa, 250 g ai/ha, Flood; 0 to 100 scale where 0 is no effect and 100 is complete control; read-out: Ducksalad plant response rating
Procedure, shortened: as §2

Kochia (Kochia scoparia) [10] = assay: Test A postemergence; conditions: Bassia scoparia, post-emergence, 240 h, postemergence, read-out: Kochia plant response rating; for pest or weed control at 125 g/ha: 125 g ai/ha, visual injury on 0 to 100 scale (0 no effect, 100 complete control), approx. 10 d; for pest or weed control at 500 g/ha: 500 g ai/ha, 0 to 100 scale, 0 is no effect, 100 is complete control
Procedure, shortened: as §1

[11] = system: barnyardgrass (Echinochloa crus-galli); assay: Test A postemergence; conditions: Echinochloa crus-galli, post-emergence, 240 h, postemergence, read-out: Barnyardgrass plant response rating; for pest or weed control at 125 g/ha: 125 g ai/ha, visual injury on 0 to 100 scale (0 no effect, 100 complete control), approx. 10 d; for pest or weed control at 500 g/ha: 500 g ai/ha, 0 to 100 scale, 0 is no effect, 100 is complete control
Procedure, shortened: as §1

[12] = system: giant foxtail (Setaria faberii); assay: Test A postemergence; conditions: Setaria faberi, post-emergence, 240 h, postemergence, read-out: Foxtail, Giant plant response rating; for pest or weed control at 125 g/ha: 125 g ai/ha, visual injury on 0 to 100 scale (0 no effect, 100 complete control), approx. 10 d; for pest or weed control at 500 g/ha: 500 g ai/ha, 0 to 100 scale, 0 is no effect, 100 is complete control
Procedure, shortened: as §1

[13] = system: ragweed (common ragweed, Ambrosia elatior); assay: Test A postemergence; conditions: Ambrosia artemisiifolia, post-emergence, 240 h, postemergence, read-out: Ragweed plant response rating; for pest or weed control at 125 g/ha: 125 g ai/ha, visual injury on 0 to 100 scale (0 no effect, 100 complete control), approx. 10 d; for pest or weed control at 500 g/ha: 500 g ai/ha, 0 to 100 scale, 0 is no effect, 100 is complete control
Procedure, shortened: as §1

Structure (SMILES)	pest or weed control at 125 g/ha (Kochia (Kochia scoparia) [1])	pest or weed control at 500 g/ha (Kochia (Kochia scoparia) [1])	pest or weed control at 125 g/ha [2]	pest or weed control at 500 g/ha [2]	pest or weed control at 125 g/ha [3]	pest or weed control at 500 g/ha [3]	pest or weed control at 125 g/ha [4]	pest or weed control at 500 g/ha [4]	pest or weed control at 125 g/ha [5]	pest or weed control at 500 g/ha [5]	pest or weed control at 125 g/ha [6]	pest or weed control at 250 g/ha [7]	pest or weed control at 250 g/ha [8]	pest or weed control at 250 g/ha (rice (Oryra sativa))	pest or weed control at 250 g/ha [9]	pest or weed control at 125 g/ha (Kochia (Kochia scoparia) [10])	pest or weed control at 500 g/ha (Kochia (Kochia scoparia) [10])	pest or weed control at 125 g/ha [11]	pest or weed control at 500 g/ha [11]	pest or weed control at 125 g/ha [12]	further results
Cc1c(F)cccc1NC(=O)[C@H]1C(=O)NC[C@@H]1c1cc(F)c(F)c(F)c1 [Compound 1125]	50%	80%	90%	90%	90%	100%	0%	40%	0%	60%	0%	0%	70%	0%	100%	0%	40%	90%	90%	90%	pest or weed control at 500 g/ha [12]: 90%; pest or weed control at 125 g/ha [13]: 0%; pest or weed control at 500 g/ha [13]: 0%
CN1C[C@H](c2ccc3c(c2)OCO3)[C@@H](C(=O)Nc2cccc(F)c2F)C1=O [Compound 1126]	70%	80%	90%	90%	90%	90%	30%	60%	0%	70%	60%	0%	75%	0%	100%	50%	70%	90%	90%	80%	pest or weed control at 500 g/ha [6]: 50%; pest or weed control at 500 g/ha [12]: 90%; pest or weed control at 125 g/ha [13]: 40%; pest or weed control at 500 g/ha [13]: 40%
O=C1NC[C@H](c2ccc3c(c2)OCO3)[C@H]1C(=O)Nc1cccc(F)c1C(F)(F)F [Compound 1127]	0%	0%	0%	30%	0%	70%	0%	0%	0%	0%	0%	0%	0%	0%	100%	0%	0%	0%	40%	0%	pest or weed control at 500 g/ha [6]: 0%; pest or weed control at 500 g/ha [12]: 50%; pest or weed control at 125 g/ha [13]: 0%; pest or weed control at 500 g/ha [13]: 0%
O=C1NC[C@H](c2ccc(F)c(OC(F)(F)C(F)F)c2)[C@H]1C(=O)Nc1cccc(F)c1F [Compound 1131]	100%	90%	90%	90%	90%	90%	80%	90%	0%	70%	60%	0%	60%	30%	70%	60%	70%	70%	90%	80%	pest or weed control at 500 g/ha [6]: 80%; pest or weed control at 500 g/ha [12]: 90%; pest or weed control at 125 g/ha [13]: 50%; pest or weed control at 500 g/ha [13]: 80%
CN1CC(c2cccc(Br)c2)C(C(=O)Nc2ccccc2F)C1=O (centres unmarked) [Compound 1132]	0%	0%	90%	90%	100%	100%	0%	0%	30%	50%	0%	40%	60%	15%	90%	0%	0%	90%	90%	80%	pest or weed control at 500 g/ha [6]: 0%; pest or weed control at 500 g/ha [12]: 90%; pest or weed control at 125 g/ha [13]: 0%; pest or weed control at 500 g/ha [13]: 0%
